Columns and labels:
hNPCs = assay: hNPC viability, proliferation, apoptosis and identity; type: cell-based, human; details: 20 μM Merbromin, 72 h after ZIKV infection
Procedure: (A) Scheme of high content chemical screen. (B) Chemical structure of hit compounds. (C) Inhibitory curve and IC50 of HH or AQ on hNPCs (n=6). (D-H) Immunocytochemistry analysis (D), the quantification of the infection rate (E), the quantification of proliferation rate (F), the quantification of cell apoptosis rate (G) and the normalized cell viability (H) of hNPCs at 72 h after ZIKV (MR 766 strain) infection with or without drug treatment. Scale bars, 100 μm. The ZIKV infection rate is defined as the percentage of ZIKV E^+ cells. The proliferation rate is defined as the percentages of Ki67^+ cells. The cell apoptosis rate was defined as the percentage of cleaved-Caspase 3/CAS3^+ cells. The normalized cell viability was calculated by dividing the total cell number of each condition by the total cell number under mock infection conditions. (n=6). (I) qRT-PCR analysis to monitor the total ZIKV vRNA in the supernatant of hNPC cultures at 72 h after ZIKV infection with or without drug treatment. (J) Vero cell reinfection assay to monitor the ZIKV infectious particles in the supernatant of hNPC cultures with or without drug treatment. To perform the Vero cell reinfection assay, hNPCs at 72 h after ZIKV infection were washed three times and changed to drug free medium for an additional 24 h. Vero cells were infected with the supernatant collected from hNPCs for 2 h and changed to virus free medium for an additional 24 h. Vero cells were stained with antibody against ZIKV E and DAPI. Scale bars, 200 μm. (n=3). (K) Quantification of ZIKV infectious particles produced by ZIKV-infected hNPCs with or without compound treatment by the Vero cell reinfection assay. (L) Heatmap analysis of mock-infected hNPCs treated with DMSO (mock); mock infected hNPCs treated with 25 μM HH (HH), mock-infected hNPCs treated with 15 μM AQ (AQ), ZIKV (MR766 strain, MOI=0.125) infected hNPCs treated with DMSO (ZIKV+DMSO); ZIKV-infected hNPCs treated with 25 μM HH (ZIKV+HH), and ZIKV-infected hNPCs treated with 15 μM AQ (ZIKV+AQ). […] (M and N) Immunocytochemistry analysis (M) and quantification of the infection rate (N) of hNPCs at 72 h after ZIKV (PRVABC59 strain) infection with or without drug treatment (n=6). Scale bars, 100 μm. p values were calculated by one-way repeated measures ANOVA with a Bonferroni test for multiple comparisons. *p<0.05, **p<0.01 and ***p<0.001.
(A) Scheme to evaluate the elimination of ZIKV. At day 0, hNPCs were infected with ZIKV for 2 h. After removal of ZIKV infection medium, hNPCs were treated with drug candidates. At day 3, the culture medium was changed to fresh medium without compounds. The cells were maintained in drug-free culture until day 6 and used for immunohistochemistry and qRT-PCR. (B and C) Inhibitory curve and IC50 of HH calculated based on the infection rate (B) and normalized cell viability (C) (n=6). (D and E) Immunocytochemistry analysis (D) and the quantification of infection rate, cell apoptosis rate, and total cell number (E) of hNPCs on day 3 and day 6. Cells was fixed and stained with cleaved Caspase-3 (CAS3), ZIKV E and DAPI. Scale bars, 100 μm. (F) qRT-PCR analysis to monitor the total ZIKV vRNA in the supernatant of hNPC cultures on day 6. Scale bars, 200 μm. (n=3). (G) Vero cell reinfection assay to monitor the infective ZIKV vRNA in the supernatant of hNPC cultures at day 6 after ZIKV infection. Scale bars, 200 μm. (n=3). (H) Quantification of ZIKV infectious particles produced by ZIKV-infected hNPCs at day 6 by the Vero cell reinfection assay. (I) hNPCs with or without ZIKV infection treated with HH maintain hNPC marker expression and differentiation capacity. hNPCs with or without ZIKV MR766 infection were treated with 25 μM HH or DMSO for 3 days and then stained for SOX2, NESTIN and with DAPI. hNPCs with or without ZIKV infection and treated with HH or DMSO for 3 days were differentiated to cortical neurons. The cortical neurons were then fixed and stained for MAP2, TUJ1 and with DAPI. Scale bars, 100 μm. (n=3). […]

ZIKV MR766 = assay: Inhibition of ZIKV infection of hNPCs (high content screen / inhibitory curve, ZIKV E staining); type: cell-based, Zika virus; details: 20 μM Merbromin, 72 h after ZIKV infection
Procedure: A high content chemical screen identifies compounds that inhibit ZIKV infection of hNPCs. To identify drugs that inhibit ZIKV infection, we screened the Prestwick library that includes 1120 FDA-approved drug and drug candidates, selected for known bioavailability and safety in humans. To perform the screen, hNPCs seeded in 384-well plates were treated with each compound from the library or vehicle control (DMSO) for 1 hour, followed by addition of ZIKV MR766 at a MOI=0.125. After two hour of inoculation with ZIKV, the virus-containing medium was replaced by fresh virus-free medium and compounds were replenished for each well (See Methods). After an additional three days of culture, cells were fixed and stained with antibodies against the ZIKV envelop protein (ZIKV E) and a cell proliferation marker Ki67 (FIG. 1A). The percentages of ZIKV E^+ cells, Ki67^+ cells and total cell number were quantified by an automated imaging and analysis system. A two dimensional analysis was performed to choose the primary hit compounds (FIG. 5A). The X-axis represents the fold change of total cell number, which was calculated by dividing the total cell number of the chemical-treated well by the average total cell number of DMSO-treated wells. The Y-axis represents the fold change of the percentage of ZIKV infected cells, which was calculated by dividing the percentage of cells expressing ZIKV E in each chemical-treated well by the average of the percentage of cells expressing ZIKV E from DMSO-treated wells. […] Based on the fold change of the percentage of ZIKV infection, the signal-to-basal (S/B) ratio is 4.2 and the coefficient of variation (CV) is 6.9%. The Z factor is 0.59 indicating a robust screening system.
hNPCs were plated on 96-well plates at 8.5×10^4/cm^2. After overnight incubation, hNPCs were infected with ZIKV (MR766 strain, MOI=0.125) for 2 h, and changed to virus-free medium. The cells were maintained in NPC medium with daily medium change. Three days later, the supernatant and cells were collected and used for assays. hESC-derived forebrain organoids were infected with ZIKV MR766 (5×10^5 PFU/ml) for 24 h. After removal of virus containing medium, forebrain organoids were maintained in forebrain organoid medium for an additional 3 or 17 days and then used for assays.
High-content Screen. hNPCs were dissociated and plated on Matrigel-coated 384-well plates for the chemical screen. […] DMSO was used as a negative control. ZIKV MR766 was added at MOI=0.125. After 2 hour infection, the supernatant was replaced with fresh medium and compounds from the same chemical library were added to the same wells. After an additional 3 days incubation, cells were fixed, stained with antibodies against ZIKV envelop protein (ZIKV E) and proliferation marker Ki67, and analyzed with the ImageXpress^MICRO Automated High-Content Analysis System. […] X-axis represents the fold change of total cell number, which was calculated by dividing the total cell number of the chemical treated well by the average of total cell number of DMSO treated wells. Y-axis represents the fold change of the percentage of ZIKV infection, which was calculated by dividing the percentage of ZIKV infection of the chemical treated well by the average of the percentage of ZIKV infection of DMSO treated wells. The compounds in which the fold change of total cell number >1 and the fold change of the percentage of ZIKV infection <20% were further evaluated. […]

O=C([O-])c1ccccc1-c1c2cc(Br)c(=O)cc-2oc2[c]([Hg+])c([O-])c(Br)cc12.[Na+].[Na+].[OH-] [Merbromin]
hNPC proliferation in ZIKV infected hNPCs (hNPCs): significantly increased
total cell loss in ZIKV infected hNPCs (hNPCs): rescued the total cell loss
ZIKV infection of hNPCs (ZIKV MR766): did not affect ZIKV infection

Reference: patent US11466020B2, “Compounds and compositions for inhibition and elimination of Zika infection and uses for same” (Cornell University, priority 2017, dated 2022)
